Experimental data reported in PMC11372837, “Albumin-Mediated Drug Uptake by Organic Anion Transporter 1/3 Is Real: Implications for the Prediction of Active Renal Secretion Clearance” (Molecular Pharmaceutics, 2024).
“And” between values parts separate entries of the source, which are not always exact repeats. Equal entries are not always repeated. Where two headings read alike, the source gives them in different places.

Assays:
human serum albumin = human serum albumin (Homo sapiens, UniProt P02768); experiment: Extent of albumin binding: high throughput equilibrium dialysis (fu,inc, Kd); assay type: in vitro ADME; settings: mean ± SD; for Kd: estimated using eq 3 from measured fu,inc; for fraction unbound at 6 h: human, equilibrium dialysis 37 °C 6 h
Chain of human serum albumin (P02768 25-609): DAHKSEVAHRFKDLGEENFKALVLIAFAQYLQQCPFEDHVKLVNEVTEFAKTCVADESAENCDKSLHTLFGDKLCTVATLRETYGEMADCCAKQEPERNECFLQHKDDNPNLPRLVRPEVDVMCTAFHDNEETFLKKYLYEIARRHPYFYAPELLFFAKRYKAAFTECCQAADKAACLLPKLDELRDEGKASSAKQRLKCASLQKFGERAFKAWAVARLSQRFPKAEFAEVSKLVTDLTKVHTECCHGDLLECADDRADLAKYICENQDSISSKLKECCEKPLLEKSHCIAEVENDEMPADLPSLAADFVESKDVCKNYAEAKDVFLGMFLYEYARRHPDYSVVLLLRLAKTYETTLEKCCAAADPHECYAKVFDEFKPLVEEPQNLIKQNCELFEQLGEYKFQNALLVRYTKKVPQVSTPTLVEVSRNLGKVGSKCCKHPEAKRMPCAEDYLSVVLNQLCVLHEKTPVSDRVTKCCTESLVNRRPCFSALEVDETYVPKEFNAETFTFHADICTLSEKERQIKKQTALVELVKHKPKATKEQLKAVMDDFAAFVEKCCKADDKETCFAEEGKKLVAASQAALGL
Experimental: Briefly, cellulose membranes with MWCO of 12–14 kDa were submerged in distilled water for 1 h, followed by 20% ethanol/distilled water for at least 20 min. Prior to the start of the experiment, cellulose membranes were rinsed in distilled water and submerged in blank DPBS for 15 min. The HTDialysis device was assembled according to the manufacturer’s instructions (https://www.htdialysis.com). Blank DPBS was first added to the receiver side of the dialysis membranes, followed by DPBS spiked with HSA and the OAT1/3 substrate to the donor side. Each HSA concentration was tested in triplicates. The HTDialysis device was sealed with an adhesive sealing film and incubated in a water bath at 37 °C for 6 h shaken at 150 rpm. Once the assay was completed, aliquots from both receiver and donor wells were transferred to a 96-well plate and stored at −80 °C until analysis. DPBS spiked with the OAT1/3 substrate from both before and after incubation was stored to assess the recovery and stability of the samples. To prepare the sample for analysis, donor and receiver samples were matrix-matched and quenched with ice-cold acetonitrile containing an internal standard (0.5 μM gemfibrozil or 0.05 μM buspirone).

OAT1 = molecular target: T1, OAT1 (Homo sapiens, UniProt Q4U2R8); experiment: OAT1 uptake study in ciPTEC-OAT1; settings: for OAT1 substrate status (uptake in ciPTEC-OAT1): control vs probenecid 300 μM
T1 sequence (Q4U2R8 1-563): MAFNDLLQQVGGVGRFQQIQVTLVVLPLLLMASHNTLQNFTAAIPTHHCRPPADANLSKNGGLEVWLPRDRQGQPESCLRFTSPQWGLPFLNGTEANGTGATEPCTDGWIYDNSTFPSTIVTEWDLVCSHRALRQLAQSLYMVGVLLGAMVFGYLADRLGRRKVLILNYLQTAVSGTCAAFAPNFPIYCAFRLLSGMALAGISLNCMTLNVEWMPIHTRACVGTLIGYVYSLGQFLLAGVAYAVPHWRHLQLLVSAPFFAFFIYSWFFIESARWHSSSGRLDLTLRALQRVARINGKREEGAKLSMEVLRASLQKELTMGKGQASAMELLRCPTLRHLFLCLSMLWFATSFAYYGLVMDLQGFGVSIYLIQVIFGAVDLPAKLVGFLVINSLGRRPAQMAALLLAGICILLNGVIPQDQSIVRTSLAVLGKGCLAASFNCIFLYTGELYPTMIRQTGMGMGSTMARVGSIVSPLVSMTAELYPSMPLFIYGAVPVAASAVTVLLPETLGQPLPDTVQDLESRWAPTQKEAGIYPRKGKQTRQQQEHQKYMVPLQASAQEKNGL

[1] = Observed in vivo (clinical) renal, secretion and intrinsic secretion clearance; settings: in vivo; for CLint,sec Observed: back-calculated from clinical data
OAT3 = molecular target: T2, OAT3 (Homo sapiens, UniProt Q8TCC7); experiment: OAT3 uptake study in ciPTEC-OAT3; settings: for ratio of CLint,u,active (R) (HSA/control) 1%: OAT3, 1% HSA vs control; for ratio of CLint,u,active (R) (HSA/control) 4%: OAT3, 4% HSA vs control; for Vb,max OAT3, Active and Passive Uptake: eq 4 fitted to CLint,u; for Vb,max OAT3, Active and Passive Uptake / Vb,max OAT3, Active Uptake Only: mean ± S.D.; for Vb,max OAT3, Active Uptake Only: eq 4 fitted to CLint,u,active
T2 sequence (Q8TCC7 1-542): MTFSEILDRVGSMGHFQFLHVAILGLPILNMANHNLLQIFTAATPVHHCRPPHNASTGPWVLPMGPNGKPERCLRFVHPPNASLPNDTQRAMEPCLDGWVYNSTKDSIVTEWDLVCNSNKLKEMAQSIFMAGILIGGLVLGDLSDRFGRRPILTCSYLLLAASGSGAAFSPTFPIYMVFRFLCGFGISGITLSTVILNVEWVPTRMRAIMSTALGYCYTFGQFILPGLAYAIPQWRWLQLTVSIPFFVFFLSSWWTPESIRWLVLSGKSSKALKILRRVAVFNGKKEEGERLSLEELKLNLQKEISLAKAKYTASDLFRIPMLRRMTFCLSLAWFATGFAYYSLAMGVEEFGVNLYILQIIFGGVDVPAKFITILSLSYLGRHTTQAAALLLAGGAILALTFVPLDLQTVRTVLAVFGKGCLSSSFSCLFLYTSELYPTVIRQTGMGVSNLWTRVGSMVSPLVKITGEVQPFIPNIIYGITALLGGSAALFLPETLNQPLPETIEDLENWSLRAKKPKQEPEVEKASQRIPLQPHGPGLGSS

[2] = in vivo, plasma renal clearance, clinical data; cited from earlier work
OAT1/3 [3] = experiment: Bottom-up IVIVE of CLint,sec, CLsec and CLr, relative activity factor (RAF) approach; parameters: species or system human
Description: (§1) The relative expression and relative activity factor (REF and RAF) are unitless scalers that account for in vivo versus in vitro differences in the abundance and activity of OAT1/3 and are used for IVIVE of in vitro CLint,u,active. REF was derived from the OAT1/3 expression ratio between the in vivo human kidney cortex to the in vitro ciPTEC-OAT1/3, as shown in eq 7: [drawing 8] 7 Absolute abundance of OAT1 and OAT3 in the human kidney cortex was previously quantified by our group using the filter-aided sample preparation protocol and global proteomic analysis.[44]

OAT1/3 [4] = experiment: Bottom-up IVIVE of CLint,sec, CLsec and CLr, relative expression factor (REF) approach; parameters: species or system human; settings: for CLint,sec Predicted 0% HSA / CLint,sec Predicted 1% HSA / CLint,sec Predicted 4% HSA / CLsec Predicted 0% HSA / CLsec Predicted 1% HSA / CLsec Predicted 4% HSA: REF approach
Description: as §1

[5] = human, in vivo
[6] = 1% human serum albumin in DPBS, 1% HSA, read-out: fu,inc (1%)
[7] = 4% HSA in DPBS, 4% HSA, read-out: fu,inc (4%)

Q: Which Kd (human serum albumin) does the source give for CCCc1nc(C(C)(C)O)c(C(=O)O)n1Cc1ccc(-c2ccccc2-c2nnn[nH]2)cc1 [olmesartan] here?
A: 1.43 ± 0.1 µM

Q: What about the fraction unbound at 6 h (human serum albumin; [6]) of the same compound?
A: 0.011 ± 0.001

Q: What about the fraction unbound at 6 h (human serum albumin; [7]) of the same compound?
A: 0.002 ± 0.0002

Q: And the “ratio of CLint,u,active (R) (HSA/control) 1%” value (OAT1; OAT1, 1% HSA vs control, unbound concentration kept constant)?
A: 17.9 ± 4.0

Q: And the “ratio of CLint,u,active (R) (HSA/control) 4%” value (OAT1; OAT1, 4% HSA vs control, unbound concentration kept constant)?
A: 122 and 122 ± 42

Q: And the “OAT1 substrate status (uptake in ciPTEC-OAT1)” value (OAT1)?
A: dual OAT1/3 substrates

Q: And the “Vb,max OAT1, Active and Passive Uptake” value (OAT1; eq 4 fitted to CLint,u, mean ± S.D.)?
A: 75.7 ± 15.5 pmol/min/mg

Q: And the “Vb,max OAT1, Active Uptake Only” value (OAT1; eq 4 fitted to CLint,u,active, Kd,m fixed from OAT3 data, mean ± S.D.)?
A: 72.7 ± 15.0 pmol/min/mg

Q: What about the “CLint,sec Observed” value [1] of the same compound?
A: 229 L/h

Q: What about the “CLint,sec Observed” value ([1]; listed as Olmesartan) of the same compound?
A: 228 L/h

Q: What about the “CLsec Observed” value ([1]; plasma secretion clearance) of the same compound?
A: 0.59 L/h

Q: What about the “ratio of CLint,u,active (R) (HSA/control) 1%” value (OAT3) of the same compound?
A: 10.5 ± 2.3

Q: And the “ratio of CLint,u,active (R) (HSA/control) 4%” value (OAT3)?
A: 28 and 28.1 ± 3.0

Q: And the “OAT3 substrate status (uptake in ciPTEC-OAT3)” value (OAT3; control vs probenecid 300 μM)?
A: dual OAT1/3 substrates

Q: What about the “Vb,max OAT3, Active and Passive Uptake” value (OAT3) of the same compound?
A: 46.2 ± 12.3 pmol/min/mg

Q: What about the “Vb,max OAT3, Active Uptake Only” value (OAT3) of the same compound?
A: 44.2 ± 12.3 pmol/min/mg

Q: And the “CLr Observed” value [2]?
A: 0.61 L/h

Q: And the “CLint,sec Predicted 0% HSA” value (OAT1/3 [3])?
A: 34.2 L/h

Q: And the “CLint,sec Predicted 1% HSA” value (OAT1/3 [3])?
A: 355 L/h

Q: And the “CLint,sec Predicted 4% HSA” value (OAT1/3 [3])?
A: 976 L/h

Q: And the “CLsec Predicted 0% HSA” value (OAT1/3 [3])?
A: 0.09 L/h

Q: What about the “CLsec Predicted 1% HSA” value (OAT1/3 [3]) of the same compound?
A: 0.92 L/h

Q: And the “CLsec Predicted 4% HSA” value (OAT1/3 [3])?
A: 2.40 L/h

Q: And the “Predicted in vivo percentage transported via OAT1 (versus OAT3)” value (OAT1/3 [4]; 4% HSA, REF scaler)?
A: 33.1%

Q: What about the “CLint,sec Predicted 0% HSA” value (OAT1/3 [4]) of the same compound?
A: 7.92 L/h

Q: And the “CLint,sec Predicted 1% HSA” value (OAT1/3 [4])?
A: 85.2 L/h

Q: And the “CLint,sec Predicted 4% HSA” value (OAT1/3 [4])?
A: 284 L/h

Q: What about the “CLsec Predicted 0% HSA” value (OAT1/3 [4]) of the same compound?
A: 0.02 L/h

Q: What about the “CLsec Predicted 1% HSA” value (OAT1/3 [4]) of the same compound?
A: 0.22 L/h

Q: And the “CLsec Predicted 4% HSA” value (OAT1/3 [4])?
A: 0.74 L/h

Q: And the “Predicted in vivo percentage transported via OAT1 (versus OAT3)” value (OAT1/3 [4]; control phase (0% HSA))?
A: 7.9%

Q: With CCCN(CCC)S(=O)(=O)c1ccc(C(=O)O)cc1 [probenecid] as the compound, how does the “Effect on OAT3-mediated uptake of the substrates” value (OAT3; probenecid 300 μM, 0% HSA) read?
A: significantly reduced

Q: What does the source list for CC(C)c1nc(N(C)S(C)(=O)=O)nc(-c2ccc(F)cc2)c1/C=C/[C@@H](O)C[C@@H](O)CC(=O)O [rosuvastatin]?
A: CLint,sec Observed [5]: 130 L/h; CLsec Observed [5]: 11.1 L/h; Kd (human serum albumin): 127 ± 5.6 µM; fraction unbound at 6 h (human serum albumin; [6]): 0.435 ± 0.041; fraction unbound at 6 h (human serum albumin; [7]): 0.18 ± 0.009; OAT1 substrate status (uptake in ciPTEC-OAT1) (OAT1): did not show any appreciable uptake; ratio of CLint,u,active (R) (HSA/control) 1% (OAT3): 2.12 ± 0.58; ratio of CLint,u,active (R) (HSA/control) 4% (OAT3): 2.7 and 2.68 ± 0.62; Vb,max OAT3, Active and Passive Uptake (OAT3): 290 ± 101 pmol/min/mg; Vb,max OAT3, Active Uptake Only (OAT3): 281 ± 96 pmol/min/mg; CLr Observed [2]: 11.9 L/h; CLint,sec Predicted 0% HSA (OAT1/3 [3]): 34.3 L/h; CLint,sec Predicted 1% HSA (OAT1/3 [3]): 68.3 L/h; CLint,sec Predicted 4% HSA (OAT1/3 [3]): 89.0 L/h; CLsec Predicted 0% HSA (OAT1/3 [3]): 3.64 L/h; CLsec Predicted 1% HSA (OAT1/3 [3]): 6.66 L/h; CLsec Predicted 4% HSA (OAT1/3 [3]): 8.27 L/h; CLint,sec Predicted 0% HSA (OAT1/3 [4]): 6.80 L/h; CLint,sec Predicted 1% HSA (OAT1/3 [4]): 13.6 L/h; CLint,sec Predicted 4% HSA (OAT1/3 [4]): 17.7 L/h; CLsec Predicted 0% HSA (OAT1/3 [4]): 0.78 L/h; CLsec Predicted 1% HSA (OAT1/3 [4]): 1.52 L/h; CLsec Predicted 4% HSA (OAT1/3 [4]): 1.96 L/h
